Several values for one entry are separate records, joined by “and”; a condition that tells them apart may be missing. Equal values may be shown once.
System: Caco-2/monocytes co-culture
Assay: Multiplex xMAP cytokine levels, Caco-2/monocytes co-culture stimulated with LL-37
Format: cell-based, human
Settings: monocytes/Caco-2 co-culture, 1 µM LL-37, 24 h, n=2
Protocol: Caco-2 cell line (ATCC HTB-37) was cultured in a humidified CO2-incubator (5% CO2, 37 °C) in the complete DMEM/F12 (1:1) medium (Gibco, Waltham, MA, USA) containing 10% fetal bovine serum (FBS, Gibco) and 1X antibiotic–antimycotic solution (Gibco). To stabilize the cell phenotype, Caco-2 cells have been subcultivated three times before seeding on the filter supports. Then, Caco-2 cells were seeded at a density of 2 × 10^5 cells/cm^2 onto 24-well Millicell cell culture inserts (PC, 0.4-μm pore size, 0.6 cm^2 surface area, cat. #PIHP01250) (Millipore, Burlington, MA, USA), precoated with 0.2% bovine gelatin (Sigma-Aldrich, Saint Louis, MO, USA). After seeding, Caco-2 cells were grown in the same complete medium with re-feeding every 2–3 days until polarization of the monolayer occurred. The functional polarity of the monolayers was developed when transepithelial electrical resistance (TEER) between the apical and basolateral surfaces of the monolayers reached […] as measured by the electrical resistance system Millicell-ERS Voltohmmeter (Millipore, Burlington, MA, USA). Grown cell monolayers were used in transport and cytokine production experiments between the 21st and 29th days.
Peripheral blood mononuclear cells (PBMCs) from a healthy donor were purchased from the American Type Culture Collection (ATCC PCS-800-011). Blood monocytes were isolated from PBMCs by plastic adhesion. Mature monocyte-derived dendritic cells (moDCs) were generated in vitro from peripheral blood monocytes, according to Nair et al.. Briefly, monocytes were cultured in a humidified CO2-incubator (5% CO2, 37 °C) in the complete RPMI-1640 medium (Gibco) with 10% FBS, antibiotics, and supplemented with a cytokine cocktail containing 500 U/mL rhIL-4 and 800 U/mL rhGM-CSF (both Sci-Store, Moscow, Russia). On the third day, the medium was replaced by the same fresh medium with FBS, antibiotics, and the cytokine cocktail. Induction of maturation of the immature monocyte-derived dendritic cells was performed on the 5th day by replacing the medium with the complete RPMI-1640 medium (Gibco) with 10% FBS and antibiotics, supplemented with a cytokine cocktail containing 500 U/mL rhIL-4, 800 U/mL rhGM-CSF (both Sci-Store, Moscow, Russia), and 100 U/mL rhTNF-α (Sigma-Aldrich), and subjected to subsequent incubation of the culture for 4 more days.
Primary blood monocytes, moDCs, and NKT cells were seeded in 600 µL of complete RPMI-1640 with 10% Human AB serum (Capricorn Scientific, Ebsdorfergrund, Germany) and supplemented with 1X antibiotic–antimycotic solution into the wells of 24-well plates at a density of 3–7 × 10^5 cells/well 24 h before the experiment. Then, 24 h later, the medium in each well was replaced by the same medium with 1 µM of LL-37 for the sample wells or fresh medium alone for the control wells, and the permeable inserts with the Caco-2 monolayer with TEER > 400 Ω × cm^2, containing 400 μL of the complete medium in their apical chamber, were immediately placed into the appropriate wells. Also, inserts with the Caco-2 monolayer were placed in cell-free wells of 24-well plates in the same complete RPMI-1640 medium with or without 1 µM of LL-37 as controls. Cells were kept in a CO2-incubator (5% CO2, 37 °C) for another 24 h. Then, culture medium from each well was collected, centrifuged, and frozen at −70 °C.
To quantitatively evaluate a broad spectrum of analytes secreted by human cell cultures at the protein level, multiplex xMAP technology was used. […]

Substance: LL-37: the only human cathelicidin, host defense antimicrobial peptide of 37 a.a. residues, produced by solid-phase peptide synthesis
- IL-2 level (control 1.07): 1.07 pg/mL
- FLT-3L level (control 1.18): 1.37 pg/mL
- IFNg level (control 1.33): 2.28 pg/mL
- IL-15 level (control 1.67): 2.58 pg/mL
- IL-18 level (control 3.28): 2.42 pg/mL
- TGF-a level (control 3.5): 3.88 pg/mL
- GM-CSF level (control 3.75): 18.58 pg/mL
- IL-4 level (control 6.54): 8.01 pg/mL
- IL-9 level (control 6.65): 8.94 pg/mL
- EGF level (control 8.06): 10.26 pg/mL
- IFNa2 level (control 11.65): 13.12 pg/mL
- IL-10 level (control 14.79, p = 0.0007): 57.4 pg/mL and 57.47 pg/mL
- TNFb level (control 21.66, p = 0.015): 30.56 pg/mL
- IL-1a level (control 22.02): 53.04 pg/mL
- Fractalkine level (control 22.95): 31.4 pg/mL
- MIP-1a level (control 27.72, p = 0.11): 3622 pg/mL
- IL-1b level (control 29.14, p = 0.0072): 104 pg/mL and 104.8 pg/mL
- IL-12 (p40) level (control 34.49): 56.57 pg/mL
- M-GSF level (control 35.52): 157.86 pg/mL
- IL-1RA level (control 42.52): 108.8 pg/mL
- IL-13 level (control 42.56): 52.71 pg/mL
- FGF-2 level (control 48.6): 52.5 pg/mL
- IL-22 level (control 48.87, p = 0.029): 71 pg/mL and 71.9 pg/mL
- MIP-1b level (control 49.37, p = 0.017): >3455↑ pg/ml
- TNFa level (control 87.19, p = 0.019): 306 pg/mL and 306.44 pg/mL
- IL-27 level (control 88.48): 119.16 pg/mL
- sCD40L level (control 92.05): 88.6 pg/mL
- G-CSF level (control 181.87, p = 0.012): 1150 pg/mL
- IP-10 level (control 191.78): 3346 pg/mL
- PDGF-AA level (control 243.05): 189.29 pg/mL
- MIG level (control 306.48, p = 0.0018): 959 pg/mL and 959.23 pg/mL
- PDGF-AB/BB level (control 692.27): 713.51 pg/mL
- MCP-3 level (control 707.64): 4706 pg/mL
- VEGFa level (control 1586): 2190 pg/mL
- IL-6 level (control 2266): 5678 pg/mL
- MDC level (control 4385): 1264 pg/mL
- GROa level (control 4827): 4862 pg/mL
- MCP-1 level (control 12186): 5364 pg/mL
- IL-8 level (control 15625): 19839 pg/mL
- IL-7 level (control <0.30): <0.30↓ pg/ml
- IL-5 level (control <0.35): <0.35↓ pg/ml
- IL-3 level (control <0.55): <0.55↓ pg/ml
- RANTES level (control <0.64): 729.59 pg/mL
- IL-17A level (control <0.70): 2.63 pg/mL
- IL-12 (p70) level (control <1.71): 2.3 pg/mL
- Eotaxin level (control <2.91): <2.91↓ pg/ml
- IL-17F level (control <12.19): <12.19↓ pg/ml
- IL-17E/IL-25 level (control <19.43): <19.43↓ pg/ml

— publication PMC10526274, “Epithelial-Immune Cell Crosstalk Determines the Activation of Immune Cells In Vitro by the Human Cathelicidin LL-37 at Low Physiological Concentrations” (Biomolecules, 2023)
